The values that follow are results of earlier work, collected in patent publication US20100240626A1, “ANTIEMETIC-ORAL CONTRACEPTIVE COMBINATION” (Lupin Limited, priority 2007, published 2010).

The conditions of this data set: 0.75 mg of levonorgestrel administered.

The structures appear in SMILES notation.

Turning to `C#C[C@]1(O)CC[C@H]2[C@@H]3CCC4=CC(=O)CC[C@@H]4[C@H]3CC[C@@]21CC` [levonorgestrel], the patients experiencing nausea entry is on record as “about 23.1%” and the patients experiencing vomiting was 5.6%.
